In paper PMC8243516, “Inhibition of lysosomal phospholipase A2 predicts drug-induced phospholipidosis” (Journal of Lipid Research, 2021):
Several values for one entry are separate records, joined by “and”; a condition that tells them apart may be missing. Equal entries are not always repeated. Where two headings read alike, the source gives them in different places.

Tests used:
MDCK cells = assay: Screening phospholipidosis assay (LipidTOX Red / NucBlue Live fluorescence ratio); conditions: LipidTOX Red to NucBlue Live fluorescence ratio, 24 h, 15 μM
[1] = cited from earlier work
LPLA2 = biological target: T1, LPLA2 (Mus musculus, UniProt Q8VEB4); assay: LPLA2 thermal stability measurement (SYPRO Orange Tm); type: binding
T1 construct: purchased Proteos Inc. (Kalamazoo, MI)
T1 sequence (Q8VEB4 34-412): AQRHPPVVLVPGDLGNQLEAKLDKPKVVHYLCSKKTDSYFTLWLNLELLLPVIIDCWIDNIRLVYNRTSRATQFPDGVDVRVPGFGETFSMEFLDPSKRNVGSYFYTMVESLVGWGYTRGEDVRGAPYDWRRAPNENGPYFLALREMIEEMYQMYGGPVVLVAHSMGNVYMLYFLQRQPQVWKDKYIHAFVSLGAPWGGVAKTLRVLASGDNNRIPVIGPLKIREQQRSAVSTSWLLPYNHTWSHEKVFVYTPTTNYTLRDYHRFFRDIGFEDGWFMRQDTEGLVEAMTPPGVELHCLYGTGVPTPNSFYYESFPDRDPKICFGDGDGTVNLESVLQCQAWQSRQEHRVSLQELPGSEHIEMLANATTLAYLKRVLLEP

[2] = biological target: T2, recombinant mouse LPLA2 (PLA2G15) (Mus musculus, UniProt Q8VEB4); assay: Transacylase activity of LPLA2 (1-O-acyl-N-acetylsphingosine synthase, cell-free liposome assay); type: biochemical
T2 construct: purchased Proteos Inc. (Kalamazoo, MI)
T2 sequence (Q8VEB4 34-412): T1 sequence (Q8VEB4 34-412)

phospholipidosis = phospholipidosis reported in vitro; Refs of Table 1; cited from earlier work
[3] = ref Pubchem and chEMBL database
[4] = 1-O-acyl N-acetylsphingosine synthase activity, pH 4.5, DOPC/sulfatide liposomes, read-out: LPLA2 IC50
[5] = ref Pubchem and chEMBL databases
[6] = LPLA2 dependent 1-O-acyl N-acetylsphingosine synthase activity, read-out: LPLA2 IC50

SMILES	Ratio (15 μM) (MDCK cells)	pKa (basic) [1, 3]	(ΔTm)c-(ΔTm)d, difference in melting temperature of LPLA2 alone or in the presence of drug (LPLA2; N=3 ± SD)	(ΔTm)c-(ΔTm)d, difference in melting temperature of LPLA2 alone or in the presence of drug (LPLA2)	IC50 [2, 4]	In Vitro PLD (phospholipidosis)	pKa (basic) [1, 5]	IC50 [2, 6]	LPLA2 inhibition (in words) ([2]; acyl transferase activity)	IC50 ([2]; LPLA2 IC50, 1-O-acyl N-acetylsphingosine synthase activity, pH 4.5, DOPC/sulfatide liposomes)
Cn1c(=O)[nH]c2ncn(C)c2c1=O [1,7-Dimethylxanthine]	0.55	13.5	0 °C							
Cl.NCCc1ccc(O)c(O)c1 [3-Hydroxytyramine hydrochloride]	0.91			0.75 ± 0.0 °C						
NCCc1cc(O)c(O)cc1O [6-Hydroxydopamine]	0.93		-0.14 ± 0.1 °C							
Oc1ncnc2[nH]ncc12 [Allopurinol]	0.37	2.57	0.67 ± 0.2 °C							
O=C(CCCN1CCN(c2ccccn2)CC1)c1ccc(F)cc1 [Azaperone]	0.43	7.16	0.93 ± 0.1 °C							
Clc1cccc(Cl)c1N=C1NCCN1 [Clonidine]	0.25	8.16	-0.62 ± 0.0 °C							
O=C1NCC2(CCN(CCc3ccccc3)CC2)O1 [Fenspiride]	0.07	9.37	-1.67 ± 1.0 °C							
CC(COc1ccccc1)NC(C)C(O)c1ccc(O)cc1 (centres unmarked) [Isoxsuprine]	1.22	9	1.1 ± 0.0 °C							
CN(CCCN1c2ccccc2CCc2ccccc21)CC(=O)c1ccc(Cl)cc1 [Lofepramine, 2-[(3-{2-azatricyclo[9.4.0.0ˆ{3,8}]pentadeca-1(15),3,5,7,11,13-hexaen-2-yl}propyl) (methyl)amino]-1-(4-chlorophenyl) ethan-1-one]			0 °C		13.2 µM	Yes	6.53			
OC[C@@H](O)[C@@H](O)[C@H](O)[C@H](O)CO [Mannitol, (2R,3R,4R,5R)-hexane-1,2,3,4,5,6-hexol]			1.0 ± 0.0 °C		160 µM	Yes	12.3			
CN1CCc2c(c3ccccc3n2Cc2ccccc2)C1 [Mebhydrolin]	2.54	6.7						146 µM		
Cc1ccc(Cl)c(Nc2ccccc2C(=O)O)c1Cl [Meclofenamic acid]	0.52	-3.6	-0.23 ± 0.1 °C							
COc1ccnc(C[S+]([O-])c2nc3ccc(OC(F)F)cc3[nH]2)c1OC (centres unmarked) [Pantoprazole, 6-(difluoromethoxy)-2-[(3,4-dimethoxypyridin-2-yl)methanesulfinyl] -1H-1,3-benzodiazole]			0.25 ± 0.1 °C		6.23 µM	Yes	3.55			
O=C1NC(=O)C(c2ccccc2)(c2ccccc2)N1 [Phenytoin]	0.38		0.13 ± 0.1 °C					60 µM		
O=c1[nH]c2ccccc2n1C1CCN(CCCC(c2ccc(F)cc2)c2ccc(F)cc2)CC1 [Pimozide, 1-{1-[4,4-bis(4-fluorophenyl)butyl]piperidin-4-yl}-2,3-dihydro-1H-1,3-benzodiazol-2-one]				0.26 ± 0.0 °C	10.6 µM	Yes	8.38			
Cc1nc2ccccn2c(=O)c1CCN1CCC(C(=O)c2ccc(F)cc2)CC1 [Pirenperone, 3-[2-[4-(4-Fluorobenzoyl)-1-piperidinyl]ethyl]-2-methyl-4H-pyrido-[1,2-a] pyrimidin-4-one]			0.79 ± 0.0 °C and 0.79 ± 0.1 °C		233 µM	Yes	8.02			
OC(CCN1CCCCC1)(c1ccccc1)c1ccccc1 [Pridinol, 1,1-diphenyl-3-(piperidin-1-yl)propan-1-ol]			0 °C		285 µM	Yes	9.34			
CC(=O)[C@H]1CC[C@H]2[C@@H]3CCC4=CC(=O)CC[C@]4(C)[C@H]3CC[C@]12C [Progesterone, (1S,3aS,3bS,9aR,9bS,11aS)-1-acetyl-9a,11a-dimethyl-1H,2H,3H, 3aH,3bH,4H,5H, 7H,8H,9H,9 aH,9bH, 10H,11H,11aH-cyclopenta [a] phenanthren-7-one]			0.61 ± 0.1 °C		10.5 µM	Yes	-4.8			
CCCOc1ccc(C(=O)OCCN(CC)CC)cc1N [Proparacaine, 2-(diethylamino)ethyl 3-amino-4-propoxybenzoate]			0 °C		2470 µM	Yes	8.56		millimolar concentrations	
COc1ccc(CN(CCN(C)C)c2ccccn2)cc1 [Pyrilamine, N-[2-(dimethylamino)ethyl]-N-[(4-methoxyphenyl)methyl]pyridin-2-amine]			0 °C		214 µM	Yes	8.76			
CCOc1cc(CC(=O)NC(CC(C)C)c2ccccc2N2CCCCC2)ccc1C(=O)O (centres unmarked) [Repaglinide, 2-ethoxy-4-[2-({3-methyl-1-[2-(1-piperidinyl)phenyl]butyl}amino)-2-oxoethyl]benzoic acid]			-0.84 ± 1.5 °C		86.5 µM	Yes	4.28			
CC1=C(/C=C/C(C)=C/C=C/C(C)=C/CO)C(C)(C)CCC1 [Retinol, (2E,4E,6E,8E)-3,7-dimethyl-9-(2,6,6-trimethylcyclohex-1-en-1-yl)nona-2,4,6,8-tetraen-1-ol]			0.81 ± 0.3 °C		52.5 µM	Yes	-2.2			
CCCCNc1ccc(C(=O)OCCN(C)C)cc1 [Tetracaine, 2-(dimethylamino)ethyl 4-(butylamino)benzoate]			-1.20 ± 0.5 °C		333 µM	Yes	8.42			
CC(CN(C)C)CN1c2ccccc2CCc2ccccc21 (centres unmarked) [Trimipramine, (3-{2-azatricyclo[9.4.0.0³,^8]pentadeca-1(15),3,5,7,11, 13-hexaen-2-yl}-2-methylpropyl)dimethylamine]			0.56 ± 0.0 °C		268 µM	Yes	9.42			
COC(=O)[C@@H]1[C@H]2C[C@H]3c4[nH]c5ccccc5c4CCN3C[C@@H]2CC[C@@H]1O [Yohimbine, methyl (1S,15R,18S,19R,20S)-18-hydroxy-3,13-diazapentacyclo [11.8.0.0^2,^10.0^4,^9.0^15,^20]henicosa-2(10),4,6,8-tetraene-19-carboxylate]				1.52 ± 0.6 °C		Yes	7.65			200 µM
COc1cc(C(=O)NS(=O)(=O)c2ccccc2C)ccc1Cc1cn(C)c2ccc(NC(=O)OC3CCCC3)cc12 [Zafirlukast, cyclopentyl N-[3-({2-methoxy-4-[(2-methylbenzenesulfonyl)carbamoyl]phenyl}methyl)-1-methyl-1H-indol-5-yl]carbamate]			1.80 ± 0.4 °C		3.1 µM	Yes	-1.1			
